Measurements taken from patent publication US10815222B2, “Compounds for use in the treatment of kinetoplastid infection” (C.N.C.C.S. S.c.a.r.l. COLLEZIONE NAZIONALE DEI COMPOSTI …, priority 2016, dated 2020).

Each compound was assayed on Bloodstream form of Trypanosoma brucei, strain Lister 427 (assay: Trypanosoma brucei growth inhibition assay (CellTiter-Glo, 24 h)). Settings: Trypanosoma brucei; T. Brucei Growth Inibition Assay, class symbols; read-out: T. Brucei GI EC50.
Type: cell-based
Method in brief: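 Growth read-out was CellTiter-Glo luminescence after 24 h at 37 °C incubation of 1500 bloodstream-form Lister 427 trypanosomes per well with compound, in supplemented IMDM containing 10% FBS and at most 0.25% DMSO.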
`COc1ccc2nc(C(F)(F)F)n(CC(=O)N3CCN(Cc4ccn(C)n4)CC[C@@H]3c3ncc(-c4cc5ccccc5nc4OC)[nH]3)c2c1` [(R)-2-(6-methoxy-2-(trifluoromethyl)-1H-benzo[d]imidazol-1-yl)-1-(7-(5-(2-methoxyquinolin-3-yl)-1H-imidazol-2-yl)-4-((1-methyl-1H-pyrazol-3-yl)methyl)-1,4-diazepan-1-yl)ethan-1-one] was tested, and the EC50 was 1010 to 5000 nM.
With `COc1ccc2nc(C)n(CC(=O)N3CCN(Cc4ccn(C)n4)CC[C@@H]3c3ncc(-c4cc5ccccc5nc4OC)[nH]3)c2c1` [(R)-2-(6-methoxy-2-methyl-1H-benzo[d]imidazol-1-yl)-1-(7-(5-(2-methoxyquinolin-3-yl)-1H-imidazol-2-yl)-4-((1-methyl-1H-pyrazol-3-yl)methyl)-1,4-diazepan-1-yl)ethan-1-one] the EC50 was < 100 nM.
`COc1nc2ccccc2cc1-c1cnc([C@@H]2CN(CC(F)(F)F)CCN2C(=O)Cn2c(C(F)(F)F)nc3ccccc32)[nH]1` [(S)-1-(2-(5-(2-methoxyquinolin-3-yl)-1H-imidazol-2-yl)-4-(2,2,2-trifluoroethyl)piperazin-1-yl)-2-(2-(trifluoromethyl)-1H-benzo[d]imidazol-1-yl)ethan-1-one] was tested, and the EC50 was < 100 nM.
For `COc1nc2ccccc2cc1-c1cnc([C@@H]2CN(Cc3ccn(C)n3)CCN2C(=O)Cn2c(C(F)(F)F)nc3ccccc32)[nH]1` [(S)-1-(2-(5-(2-methoxyquinolin-3-yl)-1H-imidazol-2-yl)-4-((1-methyl-1H-pyrazol-3-yl)methyl)piperazin-1-yl)-2-(2-(trifluoromethyl)-1H-benzo[d]imidazol-1-yl)ethan-1-one], the EC50 was < 100 nM.
`COc1nc2ccccc2cc1-c1cnc([C@@H]2CN(Cc3noc(C)n3)CCN2C(=O)Cn2c(C(F)(F)F)nc3ccccc32)[nH]1` [(S)-1-(2-(5-(2-methoxyquinolin-3-yl)-1H-imidazol-2-yl)-4-((5-methyl-1,2,4-oxadiazol-3-yl)methyl)piperazin-1-yl)-2-(2-(trifluoromethyl)-1H-benzo[d]imidazol-1-yl)ethan-1-one] was tested, and the EC50 was < 100 nM.
In the case of `COc1nc2ccccc2cc1-c1cnc([C@@H]2CN(Cc3ncco3)CCN2C(=O)Cn2c(C(F)(F)F)nc3ccccc32)[nH]1` [(S)-1-(2-(5-(2-methoxyquinolin-3-yl)-1H-imidazol-2-yl)-4-(oxazol-2-ylmethyl)piperazin-1-yl)-2-(2-(trifluoromethyl)-1H-benzo[d]imidazol-1-yl)ethan-1-one], the EC50 is reported as < 100 nM.
In the case of `COc1nc2ccccc2cc1-c1cnc([C@@H]2CN(Cc3cocn3)CCN2C(=O)Cn2c(C(F)(F)F)nc3ccccc32)[nH]1` [(S)-1-(2-(5-(2-methoxyquinolin-3-yl)-1H-imidazol-2-yl)-4-(oxazol-4-ylmethyl)piperazin-1-yl)-2-(2-(trifluoromethyl)-1H-benzo[d]imidazol-1-yl)ethan-1-one], the EC50 is reported as < 100 nM.
With `COc1nc2ccccc2cc1-c1cnc([C@@H]2CN(C3COC3)CCN2C(=O)Cn2c(C(F)(F)F)nc3ccccc32)[nH]1` [(S)-1-(2-(5-(2-methoxyquinolin-3-yl)-1H-imidazol-2-yl)-4-(oxetan-3-yl)piperazin-1-yl)-2-(2-(trifluoromethyl)-1H-benzo[d]imidazol-1-yl)ethan-1-one] the EC50 was < 100 nM.
`COc1nc2ccccc2cc1-c1cnc([C@@H]2CN(CC3COC3)CCN2C(=O)Cn2c(C(F)(F)F)nc3ccccc32)[nH]1` [(S)-1-(2-(5-(2-methoxyquinolin-3-yl)-1H-imidazol-2-yl)-4-(oxetan-3-ylmethyl)piperazin-1-yl)-2-(2-(trifluoromethyl)-1H-benzo[d]imidazol-1-yl)ethan-1-one] was tested, and the EC50 was < 100 nM.
`COc1nc2ccccc2cc1-c1cnc([C@@H]2CN(Cc3cnccn3)CCN2C(=O)Cn2c(C(F)(F)F)nc3ccccc32)[nH]1` [(S)-1-(2-(5-(2-methoxyquinolin-3-yl)-1H-imidazol-2-yl)-4-(pyrazin-2-ylmethyl)piperazin-1-yl)-2-(2-(trifluoromethyl)-1H-benzo[d]imidazol-1-yl)ethan-1-one] was tested, and the EC50 was < 100 nM.
For `COc1nc2ccccc2cc1-c1cnc([C@@H]2CN(Cc3ccccn3)CCN2C(=O)Cn2c(C(F)(F)F)nc3ccccc32)[nH]1` [(S)-1-(2-(5-(2-methoxyquinolin-3-yl)-1H-imidazol-2-yl)-4-(pyridin-2-ylmethyl)piperazin-1-yl)-2-(2-(trifluoromethyl)-1H-benzo[d]imidazol-1-yl)ethan-1-one], the EC50 was < 100 nM.
With `COc1nc2ccccc2cc1-c1cnc([C@@H]2CN(Cc3cccnc3)CCN2C(=O)Cn2c(C(F)(F)F)nc3ccccc32)[nH]1` [(S)-1-(2-(5-(2-methoxyquinolin-3-yl)-1H-imidazol-2-yl)-4-(pyridin-3-ylmethyl)piperazin-1-yl)-2-(2-(trifluoromethyl)-1H-benzo[d]imidazol-1-yl)ethan-1-one] the EC50 was < 100 nM.
With `COc1nc2ccccc2cc1-c1cnc([C@@H]2CN(Cc3cncnc3)CCN2C(=O)Cn2c(C(F)(F)F)nc3ccccc32)[nH]1` [(S)-1-(2-(5-(2-methoxyquinolin-3-yl)-1H-imidazol-2-yl)-4-(pyrimidin-5-ylmethyl)piperazin-1-yl)-2-(2-(trifluoromethyl)-1H-benzo[d]imidazol-1-yl)ethan-1-one] the EC50 was < 100 nM.
In the case of `COc1nc2ccccc2cc1-c1cnc([C@@H]2CN(C3CCOCC3)CCN2C(=O)Cn2c(C(F)(F)F)nc3ccccc32)[nH]1` [(S)-1-(2-(5-(2-methoxyquinolin-3-yl)-1H-imidazol-2-yl)-4-(tetrahydro-2H-pyran-4-yl)piperazin-1-yl)-2-(2-(trifluoromethyl)-1H-benzo[d]imidazol-1-yl)ethan-1-one], the EC50 is reported as < 100 nM.
In the case of `COc1nc2ccccc2cc1-c1cnc([C@@H]2CN(Cc3nccs3)CCN2C(=O)Cn2c(C(F)(F)F)nc3ccccc32)[nH]1` [(S)-1-(2-(5-(2-methoxyquinolin-3-yl)-1H-imidazol-2-yl)-4-(thiazol-2-ylmethyl)piperazin-1-yl)-2-(2-(trifluoromethyl)-1H-benzo[d]imidazol-1-yl)ethan-1-one], the EC50 is reported as < 100 nM.
`COc1nc2ccccc2cc1-c1cnc([C@@H]2CN(Cc3cscn3)CCN2C(=O)Cn2c(C(F)(F)F)nc3ccccc32)[nH]1` [(S)-1-(2-(5-(2-methoxyquinolin-3-yl)-1H-imidazol-2-yl)-4-(thiazol-4-ylmethyl)piperazin-1-yl)-2-(2-(trifluoromethyl)-1H-benzo[d]imidazol-1-yl)ethan-1-one] was tested, and the EC50 was < 100 nM.
`COc1nc2ccccc2cc1-c1cnc([C@@H]2CN(C3CCS(=O)(=O)CC3)CCN2C(=O)Cn2c(C(F)(F)F)nc3ccccc32)[nH]1` [(S)-1-(4-(1,1-dioxidotetrahydro-2H-thiopyran-4-yl)-2-(5-(2-methoxyquinolin-3-yl)-1H-imidazol-2-yl)piperazin-1-yl)-2-(2-(trifluoromethyl)-1H-benzo[d]imidazol-1-yl)ethan-1-one] was tested, and the EC50 was < 100 nM.
`COc1ccc2nc(C(F)(F)F)n(CC(=O)N3CCN(C4CCS(=O)(=O)CC4)C[C@H]3c3ncc(-c4cc5ccccc5nc4OC)[nH]3)c2c1` [(S)-1-(4-(1,1-dioxidotetrahydro-2H-thiopyran-4-yl)-2-(5-(2-methoxyquinolin-3-yl)-1H-imidazol-2-yl)piperazin-1-yl)-2-(6-methoxy-2-(trifluoromethyl)-1H-benzo[d]imidazol-1-yl)ethan-1-one] was tested, and the EC50 was < 100 nM.
In the case of `COc1nc2ccccc2cc1-c1cnc([C@@H]2CN(C3CCN(C(C)=O)CC3)CCN2C(=O)Cn2c(C(F)(F)F)nc3ccccc32)[nH]1` [(S)-1-(4-(1-acetylpiperidin-4-yl)-2-(5-(2-methoxyquinolin-3-yl)-1H-imidazol-2-yl)piperazin-1-yl)-2-(2-(trifluoromethyl)-1H-benzo[d]imidazol-1-yl)ethan-1-one], the EC50 is reported as < 100 nM.
In the case of `COc1ccc2nc(C(F)(F)F)n(CC(=O)N3CCN(CCn4cccn4)C[C@H]3c3ncc(-c4cc5ccccc5nc4OC)[nH]3)c2c1` [(S)-1-(4-(2-(1H-pyrazol-1-yl)ethyl)-2-(5-(2-methoxyquinolin-3-yl)-1H-imidazol-2-yl)piperazin-1-yl)-2-(6-methoxy-2-(trifluoromethyl)-1H-benzo[d]imidazol-1-yl)ethan-1-one], the EC50 is reported as < 100 nM.
`COc1ccc2nc(C(F)(F)F)n(CC(=O)N3CCN(CCc4cnoc4)C[C@H]3c3ncc(-c4cc5ccccc5nc4OC)[nH]3)c2c1` [(S)-1-(4-(2-(isoxazol-4-yl)ethyl)-2-(5-(2-methoxyquinolin-3-yl)-1H-imidazol-2-yl)piperazin-1-yl)-2-(6-methoxy-2-(trifluoromethyl)-1H-benzo[d]imidazol-1-yl)ethan-1-one] was tested, and the EC50 was < 100 nM.
`COc1nc2ccccc2cc1-c1cnc([C@@H]2CN(C3CCC(F)(F)CC3)CCN2C(=O)Cn2c(C(F)(F)F)nc3ccccc32)[nH]1` [(S)-1-(4-(4,4-difluorocyclohexyl)-2-(5-(2-methoxyquinolin-3-yl)-1H-imidazol-2-yl)piperazin-1-yl)-2-(2-(trifluoromethyl)-1H-benzo[d]imidazol-1-yl)ethan-1-one] was tested, and the EC50 was < 100 nM.
With `COc1nc2ccccc2cc1-c1cnc([C@@H]2CN(Cc3cncc(F)c3)CCN2C(=O)Cn2c(C(F)(F)F)nc3ccccc32)[nH]1` [(S)-1-(4-((5-fluoropyridin-3-yl)methyl)-2-(5-(2-methoxyquinolin-3-yl)-1H-imidazol-2-yl)piperazin-1-yl)-2-(2-(trifluoromethyl)-1H-benzo[d]imidazol-1-yl)ethan-1-one] the EC50 was < 100 nM.
`COc1nc2ccccc2cc1-c1cnc([C@@H]2CN(Cc3ccon3)CCN2C(=O)Cn2c(C(F)(F)F)nc3ccccc32)[nH]1` [(S)-1-(4-(isoxazol-3-ylmethyl)-2-(5-(2-methoxyquinolin-3-yl)-1H-imidazol-2-yl)piperazin-1-yl)-2-(2-(trifluoromethyl)-1H-benzo[d]imidazol-1-yl)ethan-1-one] was tested, and the EC50 was < 100 nM.
`COc1nc2ccccc2cc1-c1cnc([C@@H]2CN(Cc3ccccc3)CCN2C(=O)Cn2c(C(F)(F)F)nc3ccccc32)[nH]1` [(S)-1-(4-benzyl-2-(5-(2-methoxyquinolin-3-yl)-1H-imidazol-2-yl)piperazin-1-yl)-2-(2-(trifluoromethyl)-1H-benzo[d]imidazol-1-yl)ethan-1-one] was tested, and the EC50 was < 100 nM.
